{
  "source": "patent US12310946B2",
  "about": "“Pharmaceutical composition for oral administration of edaravone and method of administering same” (MITSUBISHI TANABE PHARMA CORPORATION, priority 2020, dated 2025)",
  "key": {"[1]": {"tested_on": "Caco-2 cells", "experiment": "Caco-2 cell monolayer membrane permeability test", "quoted_text": "(§3) Caco-2 cells were seeded on a 24-well plate, cultured at 37° C. for 21 to 23 days in a CO2 incubator, and then a Caco-2 cell monolayer membrane permeability test was conducted. After checking the membrane resistance value of the cell layer after the culture, the culture medium in the plate was replaced with HBSS (pH 7.4). […] For the control compounds, [^3H]propranolol as a high membrane permeability control and [^14C]mannitol as a low membrane permeability control were used."}, "[2]": {"experiment": "Caco-2 cell monolayer membrane permeability test", "details": "human, Caco-2, pH 7.4", "quoted_text": "as §3"}, "[3]": {"experiment": "Clinical study #5: PK of edaravone oral formulation (formula #3) in ALS patients, oral, fasted", "assay_type": "in vivo, human", "details": "for difference in the AUC between the patient group and the reference group / difference in the Cmax between the patient group and the reference group: ALS patients oral vs healthy oral; for Cmax: po, 105 mg", "method": "To evaluate the pharmacokinetics of edaravone in ALS patients, a clinical study #5 shown below was conducted in ALS patients who can live daily life independently (the patient group).\nThe edaravone oral formulation was administered orally to the patient group in fasted conditions after a lapse of 10 hours or longer from consumption of a meal. In the patient group, ALS patients who had been already administered with an edaravone intravenous infusion formulation were orally administered with the edaravone oral formulation after a lapse of 48 hours or longer from the time of completion of the previous administration of the intravenous infusion formulation. The same edaravone oral formulation as the formula #3 in Table 1 above was used. Then, blood samples were each collected before the administration, and 5 minutes, 15 minutes, 30 minutes, 45 minutes, 1 hour, 1.5 hours, 2 hours, 4 hours, 6 hours, 8 hours, 10 hours, 12 hours, and 24 hours after the administration, and the concentrations of unchanged edaravone in plasma were measured.\nThe resulting PK parameters were corrected for body weight of each subject adjusted to 70 kg by a proportional calculation for each of the patient group and the reference group. In addition, the results of the PK parameters after correction of the patient group are shown as box-whisker plots of #9 (the reference group), and individual plots of #5 (the patient group) and #9 (the reference group) in FIG. 3. In FIG. 3, X represents a mean value. […] Thus, the difference in the Cmax and the difference in the AUC before weight correction between the patient group and the reference group seen in Table 9 below are considered due to the difference in body weight between the patient group and the reference group, and the difference in the Cmax and the difference in the AUC after weight correction between the patient group and the reference group observed in FIG. 3 are each considered to be within the range of error."}, "[4]": {"tested_on": "transporters P-gp and BCRP expressed in Caco-2 cells", "experiment": "Caco-2 transcellular transport study, efflux ratio with and without P-gp and BCRP inhibitors", "assay_type": "in vitro ADME", "details": "Caco-2 cells", "method": "(§1) Cell membrane permeability is known to be constant regardless of the concentration of the substance when no transporter is involved. The control compounds, propranolol and mannitol, are not substrates for transporters P-gp and BCRP expressed in Caco-2 cells, and thus the values of the permeability coefficient are not considered to change depending on the concentrations used in the test. Thus, further, the following study was conducted to confirm that edaravone is not a substrate for transporters P-gp and BCRP as well.\n(§2) That is, Caco-2 cells were seeded on a 96-well plate, cultured at 37° C. for 10 to 11 days in a CO2 incubator, and then a transcellular transport study was conducted. Then, a […] was calculated. The efflux ratio was calculated as the ratio of the mean values of Papp calculated from three measurements."}, "[5]": {"tested_on": "P-gp and BCRP", "experiment": "Caco-2 transcellular transport study, efflux ratio with and without P-gp and BCRP inhibitors", "assay_type": "in vitro ADME", "details": "human, Caco-2", "method": "as §1, §2"}, "[6]": {"experiment": "Clinical study #4: PK of edaravone oral formulation (formula #2), high-fat meal 1 hour after administration vs fasted", "assay_type": "in vivo, human", "details": "100 mg oral; for partial AUC / AUC(0-inf) / Cmax / Tmax / half-life: male, human, plasma, po, 100 mg; for AUC(0-inf) / Cmax / Tmax / half-life: mean (n = 9)", "method": "Effects of meal consumption 1 hour after administration of the edaravone oral formulation on the pharmacokinetics of edaravone were evaluated. Specifically, a clinical study #4 described below was conducted on the same subjects in Japanese healthy adult male subjects. In the clinical study #4, the edaravone oral formulation of the formula #2 in Table 1 above was used and administered orally once during the study period. In addition, the same high-fat meal as that used in Example 1 above was used.\nAs a post-administration consumption group, the same subjects in fasted conditions after a lapse of 10 hours or longer from meal consumption were orally administered with the edaravone oral formulation, and the high-fat meal was consumed 1 hour after the administration. Blood samples were each collected before the administration, and 5 minutes, 15 minutes, 30 minutes, 1 hour, 1.5 hours, 2 hours, 4 hours, 6 hours, 8 hours, 12 hours, 24 hours, 36 hours, and 48 hours after the administration, and the concentrations of unchanged edaravone in plasma were measured. The consumption of the high-fat meal 1 hour after the administration was carried out after the blood sample collection 1 hour after the administration, and a subsequent meal was not consumed until the blood sample collection 4 hours after the administration was completed. On the other hand, as a fasted group for reference, the edaravone oral formulation was administered orally to the same subjects in fasted conditions, blood samples were collected, and the concentrations of unchanged edaravone in plasma were measured in the same manner.\nIn addition, the AUC0-∞ after the administration of the edaravone oral formulation was evaluated separately on the results from 0 hour to 1 hour after the administration (0 to 1 h, before the consumption of a meal resumed after the administration) (AUC0-1h) and the results 1 hour after the administration (1 h to ∞ h, after the consumption of a meal resumed after the administration) (AUC1h-∞) for the post-administration consumption group (1 h before high-fat meal) and the fasted group (Fasted)."}, "[7]": {"details": "after weight correction (70 kg)"}, "[8]": {"details": "human, plasma, 105 mg oral, fasted, ALS patients (n = 9), mean, before weight correction"}, "[9]": {"details": "1 h before high-fat meal vs fasted"}, "[10]": {"details": "high-fat meal 1 hour after administration vs fasted"}, "[11]": {"details": "formula #2, 1 h before high-fat meal"}},
  "note": "Like-named read-outs stand apart in the source and are kept apart here.",
  "data": [
    {"smiles": "CC1=NN(c2ccccc2)C(=O)C1", "note": "[Edaravone, 3-methyl-1-phenyl-2-pyrazolin-5-one]", "values": [
      {"measurement": "membrane permeability relative to high permeability control", "setting": "[1]; Caco-2, vs propranolol", "value": "equal to or higher than that of propranolol"},
      {"measurement": "permeability classification under Biopharmaceutics Classification System", "setting": "[1]; based on Caco-2 membrane permeability test", "value": "high permeability compound"},
      {"measurement": "Papp A→B at 2 h, 100 μmol/L", "setting": "[2]", "value": "32 ± 1.7", "unit": "×10⁻⁶ cm/s"},
      {"measurement": "difference in the AUC between the patient group and the reference group", "setting": "[3]; [7]", "value": 5.8, "unit": "%"},
      {"measurement": "difference in the Cmax between the patient group and the reference group", "setting": "[3]; [7]", "value": 9.8, "unit": "%"},
      {"measurement": "difference in the AUC between the patient group and the reference group", "setting": "[3]; before weight correction", "value": 1.5, "unit": "%"},
      {"measurement": "difference in the Cmax between the patient group and the reference group", "setting": "[3]; before weight correction", "value": 15, "unit": "%"},
      {"measurement": "Cmax", "setting": "[3]; human, plasma, 105 mg oral, ALS patients, corrected to 70 kg, read-out: Cmax after weight correction, mean value±standard error", "value": "1610 ± 231", "unit": "ng/mL"},
      {"measurement": "Cmax", "setting": "[3]; human, plasma, 105 mg oral, fasted, ALS patients (n = 9), mean, before weight correction, read-out: Cmax", "value": 1900, "unit": "ng/mL"},
      {"measurement": "AUC", "setting": "[3]; human, plasma, 105 mg oral, ALS patients, corrected to 70 kg, read-out: AUC after weight correction, mean value±standard error", "value": "1460 ± 166", "unit": "ng·h/mL"},
      {"measurement": "AUC(0-inf)", "setting": "[3]; [8]", "value": 1740, "unit": "ng·h/mL"},
      {"measurement": "Tmax", "setting": "[3]; [8]", "value": 18.6, "unit": "min"},
      {"measurement": "substrate for P-gp and BCRP", "setting": "[4]", "value": "not a substrate for P-gp and BCRP"},
      {"measurement": "efflux ratio at 10 μmol/L", "setting": "[5]; 10 μmol/L, no inhibitor", "value": 0.9},
      {"measurement": "efflux ratio", "setting": "[5]; in presence or absence of inhibitors", "value": "≤ 2"},
      {"measurement": "change in the AUC0-1h in comparison with fasted", "setting": "[6]; [9]", "value": "slight decrease"},
      {"measurement": "change in the AUC1h-∞ in comparison with fasted", "setting": "[6]; [9]", "value": "no change"},
      {"measurement": "change in the AUC in comparison with fasted", "setting": "[6]; [9]", "value": "→"},
      {"measurement": "change in the Cmax in comparison with fasted", "setting": "[6]; [9]", "value": "→"},
      {"measurement": "decrease in the AUC in comparison with the fasted group", "setting": "[6]; [10]", "value": "about 10.4%"},
      {"measurement": "decrease in the Cmax in comparison with the fasted group", "setting": "[6]; [10]", "value": "about 17.0%"},
      {"measurement": "partial AUC", "setting": "[6]; 1 h before high-fat meal (n = 9), read-out: AUC0-1h", "value": "772 ± 519", "unit": "ng·h/mL"},
      {"measurement": "partial AUC", "setting": "[6]; 1 h before high-fat meal (n = 9), read-out: AUC1h-∞", "value": "703 ± 202", "unit": "ng·h/mL"},
      {"measurement": "partial AUC", "setting": "[6]; fasted (n = 9), read-out: AUC0-1h", "value": "890 ± 349", "unit": "ng·h/mL"},
      {"measurement": "partial AUC", "setting": "[6]; fasted (n = 9), read-out: AUC1h-∞", "value": "756 ± 232", "unit": "ng·h/mL"},
      {"measurement": "AUC(0-inf)", "setting": "[6]; [11]", "value": 1480, "unit": "ng·h/mL"},
      {"measurement": "Cmax", "setting": "[6]; [11]", "value": 1500, "unit": "ng/mL"},
      {"measurement": "Tmax", "setting": "[6]; [11]", "value": 36, "unit": "min"},
      {"measurement": "half-life", "setting": "[6]; [11]", "value": 579, "unit": "min"},
      {"measurement": "AUC(0-inf)", "setting": "[6]; formula #2, fasted", "value": 1650, "unit": "ng·h/mL"},
      {"measurement": "Cmax", "setting": "[6]; formula #2, fasted", "value": 1810, "unit": "ng/mL"},
      {"measurement": "Tmax", "setting": "[6]; formula #2, fasted", "value": 21.6, "unit": "min"},
      {"measurement": "half-life", "setting": "[6]; formula #2, fasted", "value": 560, "unit": "min"}
    ]}
  ]
}
